Patent publication US20210113602A1, “USE OF 6-THIO-2'-DEOXYGUANOSINE (6-THIO-dG) TO TREAT MELANOMA” (The Board of Regents of the University of Texas System, priority 2018, published 2021)
Entries after “also recorded” stand apart in the source; their conditions may differ.

Assays:
[1] = tested on: NRAS mutant melanoma cells; assay: Telomere dysfunction-induced foci (TIF) assay; format: cell-based, human; settings: WM3000 transduced with TERT shRNA; NAC 1 mM for 7 days
Description: Supplementary FIGS. 6a-b. […] NRAS mutant melanoma cells WM3000 were transduced with TERT shRNA and treated with NAC […] for 7 days. (Supplementary FIG. 6a) TIFs were assessed by indirect immunofluorescence combined with fluorescence in situ hybridization (FISH). Representative images are shown (scale bar=10 μm). (Supplementary FIG. 6b) Quantification of TIF positive cells. Cells were scored as TIF positive when three or more y-H2AS foci (green) were co-localizing with telomere foci (red). Data represent average of thirteen fields imaged +/−SD.
Supplementary FIGS. 8a-d. NRAS mutant melanoma cells are sensitive to the telomere uncapping agent 6-thio-dG. NRAS^mut melanoma cells were treated with 6-thio-dG for 6, 12 or 18 days. (Supplementary FIG. 8a) Relative cell number was assessed by Cyrstal Violet assay and calculated relative to DMSO-treated cells. […] (Supplementary FIG. 8c) NRAS^mut cells were treated with 6-thio-dG for 7 days and telomere-induced foci (TIF) were determined by indirect immunofluorescence combined with fluorescence in situ hybridization (FISH). […] (Supplementary FIG. 8d) Quantification of TIF assay. Cells were scored as TIF-positive when four or more γ-H2AX foci (green) were co-localizing with telomere foci (red). […] P values were calculated by unpaired Student's t-test.
DNA damage and telomere dysfunction assay (TIF). […] Mean fluorescence staining was quantified by flow cytometry. […]

[2] = tested on: NRAS mutant melanoma cells; assay: Cell death by flow cytometry (PSVue or Annexin V/PI); format: cell-based; settings: TERT shRNA 7 dpi; 5 μM Gamitrinib for 48 h
Description: (FIG. 2d) NRASmut melanoma cells and non-transformed human fibroblasts were treated with 1 or 5 μM 6-thio-dG for 7 or 14 days. Cell death was assessed by PSVUe staining. Percent of apoptotic cells is shown. […] (FIGS. 2f-g) Cells were treated with 1 μM 6-thio-dG for 7 days. […] Data represent average from three independent experiments±SEM. *p<0.05; **p<0.01; ***p<0.005 in unpaired Student's t-test.
(FIG. 3f) SOD2 was silenced using shRNA. Transduced M93-047 cells were treated with DMSO or 1 μM of 6-thio-dG and cell death was assessed by Annexin V/PI straining. (FIG. 3g) M93-047 cells were transduced with a SOD2 lentiviral construct or empty vector control (pLX304). Transduced cells were treated with increasing doses (1, 2.5 and 5 μM) of 6-thio-dG for 7 days and cell death was assessed. Data represent average from three independent experiments±SEM. *p<0.05; **p<0.01; ***p<0.005 in unpaired Student's t-test.
(FIG. 4a) NRASmut melanoma cells transduced with TERT shRNA were treated 7 days post infection with 5 μM Gamitrinib (Gam) for 48 h. Cell death was assessed by Annexin V and PI staining. (FIG. 4b) NRASmut melanoma cells and non-transformed fibroblasts were treated with 1 μM 6-thio-dG for 5 days. At day 5, culture medium was replaced and cells treated with 1 μM 6-thio-dG plus 5 μM Gam for two more days. Cells were stained with Annexin V and PI and percent cell death was determined by flow cytometry. […] Data represent average of three independent experiments ±SEM. P values were calculated using unpaired Student's t-test; * p<0.05; ***p<0.005.
(Supplementary FIG. 10a) NRASmut melanoma cells were treated with 6-thio-dG (1 μ) for 7 days total. At day 5, culture medium was replaced and cells were treated with 1 μM 6-thio-dG plus 1 mM Phenformin for two more days. Percent cell death was determined by flow cytometry following staining of cells with Annexin V and Propidium iodide. Data represent average of three independent experiments +/−SEM. *p<0.05 in unpaired Student's t-test.

[3] = tested on: NRAS-WT/BRAF-WT melanoma cells; assay: Cell death, Annexin V/PI; format: cell-based, human; settings: single agents or combination; 1 μM 6-thio-dG, 5 μM Gam
[4] = tested on: NRAS-WT/BRAF-mut melanoma cells; assay: Cell death, Annexin V/PI; format: cell-based, human
NRAS mutant SKNAS cells = assay: Cell death, Annexin V/PI; format: cell-based, human; settings: single agents or combination; 1 μM 6-thio-dG, 5 μM Gam
KRAS mutant HCT116 cells = assay: Cell death, Annexin V/PI; format: cell-based, human; settings: 1 μM 6-thio-dG, 5 μM Gam
KRAS mutant A549 cells = assay: Cell death, Annexin V/PI; format: cell-based, human; settings: 1 μM 6-thio-dG, 5 μM Gam
SOD2 = settings: cited from earlier work
NRAS mutant cells = settings: cited from earlier work
BRAF-mutant melanoma = settings: cited from earlier work
[5] = tested on: NRAS mutant melanoma spheroids; assay: 3D collagen-embedded melanoma spheroids, live/dead staining; format: cell-based, human; settings: 6-thio-dG (5 μM) and Ganetespib (5 μM); day 7
Description: (FIG. 6a) Collagen-embedded melanoma spheroids were treated with DMSO, 6-thio-dG (5 μM) and Gam (5 μM) as in FIGS. 4a-c. On day 7, spheroids were stained with Calcein AM (live cells;
green) and EtBr (dead cells; red) and imaged using an inverted microscope (4×; scale bar=250 μm). Representative merged images from three independent experiments are shown. (FIGS. 6b-d) NRAS mutant M93-047 tumor bearing mice were treated with vehicle control, 6-thio-dG (2.5 mg/kg; ip qd), Gam (12.5 mg/kg; ip qod), or the combination of the two drugs for the indicated days (n=7 mice/group). (FIG. 6b) Average tumor volume over time±SEM is represented. (FIG. 6c) Average tumor weight±SEM after 14 days of treatment. P values were calculated using unpaired Student's t-test. * p<0.05, **p<0.01, ***p<0.005, when comparing vehicle control vs. combination treatment groups. […] Kaplan Meier survival curves of mice treated for 14 days. p-values were calculated by Mantel-Cox logrank test; * p<0.05, **p<0.01, ***p<0.005. (FIG. 6e) Animal weight (grams) before treatment (start of TX) and at the end of the study (End of TX) was assessed and recorded for every mouse enrolled in the study. […] Statistical significance was assessed by unpaired Student's t-test.
Supplementary FIGS. 10a-b. […] Percent cell death was determined by flow cytometry following staining of cells with Annexin V and Propidium iodide. […]

With `CC(=O)N[C@@H](CS)C(=O)O` [NAC, N-acetyl-L-cysteine] the “number of TIF in TERT depleted cells” value [1] was “attenuates TIFs; also recorded: attenuated the number of TIF”.
For Gamitrinib [reference compound], the “cytotoxic effects in TERT depleted cells” value [2] was “enhanced the cytotoxic effects”, the cell death [3] was “did not induce cell death” and the “cell death (in words)” value ([4]; 1 μM 6-thio-dG, 5 μM Gam) was “highly sensitive”. The cell death ([4]; Gamitrinib alone, 5 μM) was 75-80%, the cell death (NRAS mutant SKNAS cells) was “triggered significant death” and the cell death (KRAS mutant HCT116 cells) was “did not induce substantial death”. The cell death (KRAS mutant A549 cells) was “did not induce substantial death”, the SOD2 levels (SOD2) was “downregulate SOD2 levels” and the “anti-cancer activity as a single agent” value (NRAS mutant cells) was “limited activity”. The anti-cancer efficacy (BRAF-mutant melanoma) was “efficacy”.
With `CC(C)c1cc(-c2n[nH]c(=O)n2-c2ccc3c(ccn3C)c2)c(O)cc1O` [ganetespib] the “enhancement of 6-thio-dG efficacy in spheroids” value [5] was “did not substantially enhance the efficacy”.
